# Source: patent US8420817B2, “Tricyclic N-heteroaryl-carboxamide derivatives, preparation and therapeutic use thereof” (Sanofi, priority 2007, dated 2013)
# Legend:
# TRPV1 receptor = molecular target: T1, TRPV1 receptor (Rattus norvegicus, UniProt O35433); experiment: Inhibition of the current induced by capsaicin on rat DRGs (whole-cell patch-clamp); assay type: cell-based; conditions: DRG neuron; compound at 10 nM; inhibition of the control capsaicin response; rat DRG neurons
# T1 construct: The neurons of the DRG naturally express the TRPV1 receptor; endogenous in cells; host or cells: primary culture of newborn rat dorsal root ganglion neurons
# T1 sequence (O35433 whole entry): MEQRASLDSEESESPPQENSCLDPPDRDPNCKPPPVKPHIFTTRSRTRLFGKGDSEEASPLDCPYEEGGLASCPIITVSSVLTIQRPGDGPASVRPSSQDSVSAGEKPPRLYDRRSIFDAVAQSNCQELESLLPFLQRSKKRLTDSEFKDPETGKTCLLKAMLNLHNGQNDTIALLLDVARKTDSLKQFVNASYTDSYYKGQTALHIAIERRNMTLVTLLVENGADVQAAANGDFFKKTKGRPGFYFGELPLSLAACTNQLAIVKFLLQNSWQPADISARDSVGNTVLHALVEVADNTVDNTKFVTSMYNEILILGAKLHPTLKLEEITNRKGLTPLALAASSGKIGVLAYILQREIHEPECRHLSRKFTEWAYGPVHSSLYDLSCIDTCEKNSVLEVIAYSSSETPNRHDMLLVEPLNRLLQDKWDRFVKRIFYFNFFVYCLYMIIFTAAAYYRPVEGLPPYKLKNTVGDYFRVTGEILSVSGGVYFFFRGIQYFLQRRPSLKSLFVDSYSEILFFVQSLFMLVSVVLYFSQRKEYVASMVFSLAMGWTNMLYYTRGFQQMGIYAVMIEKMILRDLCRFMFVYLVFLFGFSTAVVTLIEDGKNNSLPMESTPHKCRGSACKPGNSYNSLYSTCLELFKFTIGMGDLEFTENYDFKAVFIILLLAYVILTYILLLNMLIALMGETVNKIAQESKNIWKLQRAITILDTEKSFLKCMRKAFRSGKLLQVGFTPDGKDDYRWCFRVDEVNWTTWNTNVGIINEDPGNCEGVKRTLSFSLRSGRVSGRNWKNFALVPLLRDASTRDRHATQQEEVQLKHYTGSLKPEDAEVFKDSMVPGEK
# Procedure: Test for Inhibition of the Current Induced by Capsaicin on Rat DRGs
# • Primary culture of rat dorsal root ganglion (DRG) cells:
# The neurons of the DRG naturally express the TRPV1 receptor.
# Newborn rat DRG primary cultures are prepared from 1-day-old rat pups. Briefly, after dissection, the ganglia are trypsinized and the cells are mechanically dissociated by controlled trituration. The cells are resuspended in an Eagle's basal culture medium containing 10% of fetal calf serum, 25 mM KCl, 2 mM glutamine, 100 μg/ml gentamicin and 50 ng/ml of NGF, and then deposited onto laminin-coated glass cover slips (0.25×10^6 cells per cover slip) which are then placed in 12-well Corning dishes. The cells are incubated at 37° C. in a humidified atmosphere containing 5% CO2 and 95% air. […]
# The measuring chambers (volume 800 μl) containing the cell preparation are placed on the platform of an inverted microscope (Olympus IMT2) equipped with Hoffman optics (Modulation Contrast, New York), and observed at the magnification of 400×. […] The overall currents (membrane potential fixed at −60 mV) are recorded with an Axopatch 1D amplifier (Axon Instruments, Foster City, Calif.), connected to a PC controlled by Pclamp8 software (Axon Instruments). The current traces are recorded on paper and simultaneously digitized (sampling frequency 15 to […]) and acquired on the hard drive of the PC. […]
# TRPV1 receptors = molecular target: T2, TRPV1 receptors (Mus musculus, UniProt Q704Y3); experiment: Pain induced by intraplantar administration of capsaicin in mice; assay type: in vivo; conditions: 30 mg/kg orally 120 minutes before intraplantar capsaicin, n=10
# T2 construct: from tissue; host or cells: living mice, hind paw (in vivo behavioural test)
# T2 sequence (Q704Y3 whole entry): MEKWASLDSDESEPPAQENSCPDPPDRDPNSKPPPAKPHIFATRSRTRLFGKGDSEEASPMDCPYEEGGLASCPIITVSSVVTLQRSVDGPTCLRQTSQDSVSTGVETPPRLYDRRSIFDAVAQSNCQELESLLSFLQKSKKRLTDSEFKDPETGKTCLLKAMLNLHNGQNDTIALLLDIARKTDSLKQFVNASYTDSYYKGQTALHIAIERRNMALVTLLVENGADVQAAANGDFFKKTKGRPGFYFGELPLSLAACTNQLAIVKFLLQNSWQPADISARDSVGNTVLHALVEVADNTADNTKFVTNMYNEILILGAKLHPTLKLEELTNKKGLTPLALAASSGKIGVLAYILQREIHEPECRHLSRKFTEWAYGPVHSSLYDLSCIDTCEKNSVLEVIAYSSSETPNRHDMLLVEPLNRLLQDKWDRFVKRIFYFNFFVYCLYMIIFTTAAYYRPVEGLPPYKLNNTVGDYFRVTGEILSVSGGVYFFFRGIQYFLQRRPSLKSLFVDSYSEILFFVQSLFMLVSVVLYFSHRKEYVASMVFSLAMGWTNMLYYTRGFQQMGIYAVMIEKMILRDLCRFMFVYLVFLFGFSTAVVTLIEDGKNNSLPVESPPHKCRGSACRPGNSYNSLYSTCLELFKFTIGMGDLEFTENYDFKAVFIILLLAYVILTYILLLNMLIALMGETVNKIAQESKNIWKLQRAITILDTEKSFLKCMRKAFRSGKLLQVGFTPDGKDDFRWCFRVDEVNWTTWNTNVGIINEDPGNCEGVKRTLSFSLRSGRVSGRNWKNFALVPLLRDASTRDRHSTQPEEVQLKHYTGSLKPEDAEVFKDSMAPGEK
# Procedure: Pain Induced by Intraplantar Administration of Capsaicin in Mice
# The intraplantar injection of capsaicin in mice rapidly produces a short-duration nociceptif behavior which is manifested in instances of licking, chewing and flexing of the treated paw. These nociceptive responses are probably linked to activation of the local TRPV1 receptors by the capsaicin.
# (E)-capsaicin is initially diluted at 3 mg/ml in DMSO, then diluted again, for its final use, at 1.5 μg/20 μl in physiological saline. Administration of solvent has no effect at all on the behavior of the mouse. The capsaicin is injected into one of the hind paws of the animal, at the level of the upper face.
# The compounds to be tested are administered orally 120 minutes prior to injection of capsaicin. […] The nociceptif behavior of the animals is then immediately evaluated by the person carrying out the experiment, and the duration of the behavioral manifestations induced by the capsaicin is recorded with a stop watch for a time of 2 minutes (licking and chewing, total or partial flexing of the injected paw).
# For each compound an inhibition is determined which corresponds to the mean of the nociceptive responses induced by the capsaicin in response to a dose of test product (expressed in mg/kg) administered orally, on a sample of a specific number of mice (n).
% inhibition of nociceptive responses induced by capsaicin (TRPV1 receptors),SMILES,inhibition at 0.01 µM (TRPV1 receptor),melting point
,"O=C(Nc1cnc2c(c1)nc1n2CCC1)c1cc2cc(F)ccc2n1Cc1cccc(F)c1 [Compound 1, N-(7,8-Dihydro-6H-pyrrolo[2′,1′:2,3]imidazo[4,5-b]pyridin-3-yl)-5-fluoro-1-(3-fluorobenzyl)-1H-indole-2-carboxamide]",69%,227 to 229 °C
63% (+/−11%),"O=C(Nc1cnc2c(c1)nc1n2CCC1O)c1cc2cc(C(F)(F)F)ccc2n1Cc1cccc(F)c1 (racemic) [Compound 29, N-(6-Hydroxy-7,8-dihydro-6H-pyrrolo[2′,1′:2,3]imidazo[4,5-b]pyridin-3-yl)-5-trifluoromethyl-1-(3-fluorobenzyl)-1H-indole-2-carboxamide]",,254 to 255 °C
